Results on ten compounds are retold here after patent US7709471B2, “Compounds” (AstraZeneca AB, priority 2006, dated 2010).

The target in one test is recombinant Plk1 (Homo sapiens, UniProt P53350). The test can be described thus: In Vitro Plk1 Enzyme Assay (SPA, GST-Cdc25C phosphorylation). Format: biochemical. The conditions noted are these: ATP 64 nM, 90 minutes, read-out: IC50 (Plk1 enzyme inhibition).
The subject of test [1] is human colon tumour cell line HT29. As to the kind of experiment: Cellular Assay (phosphohistone H3 Ser10 mitotic marker, HT29). In kind it is cell-based. The conditions noted are these: HT-29, 24 h, HT29 cells, read-out: IC50 (cellular assay, phosphohistone H3).
Protocol: Chromosome condensation in mitosis is accompanied by phosphorylation of histone H3 on serine 10.
After 24 hours, cells were fixed in 3.7% (v/v) formaldehyde then permeabilised and blocked for 10 minutes in 100 μl 0.5% (v/v) Triton X-100, 1% (w/v) bovine serum albumin (BSA) in phosphate buffered saline (PBS). […] The raw assay data were analysed by non-linear regression analysis and used to determine an IC50 value for each compound.

pIC50: −log10 of the molar value. A value given as a limit tells only on which side of the number the result lay.

Chain of recombinant Plk1 (P53350 whole entry): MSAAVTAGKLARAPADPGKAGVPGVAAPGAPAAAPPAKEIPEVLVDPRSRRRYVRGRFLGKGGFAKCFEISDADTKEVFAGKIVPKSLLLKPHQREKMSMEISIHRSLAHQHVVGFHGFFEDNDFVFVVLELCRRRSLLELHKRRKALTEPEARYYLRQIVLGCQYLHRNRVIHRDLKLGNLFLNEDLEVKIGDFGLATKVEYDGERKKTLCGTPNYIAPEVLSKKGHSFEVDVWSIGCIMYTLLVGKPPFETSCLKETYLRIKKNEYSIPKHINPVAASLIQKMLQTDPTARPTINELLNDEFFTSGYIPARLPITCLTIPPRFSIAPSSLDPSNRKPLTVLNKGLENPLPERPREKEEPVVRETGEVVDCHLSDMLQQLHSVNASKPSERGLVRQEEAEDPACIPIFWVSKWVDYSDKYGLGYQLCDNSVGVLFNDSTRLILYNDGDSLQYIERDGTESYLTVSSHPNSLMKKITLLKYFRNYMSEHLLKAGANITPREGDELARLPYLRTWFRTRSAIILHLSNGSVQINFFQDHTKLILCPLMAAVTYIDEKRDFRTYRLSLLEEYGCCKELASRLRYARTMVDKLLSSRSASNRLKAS
Protocol for recombinant Plk1: Reactions were stopped by addition of EDTA (110 mM) and the Cdc25C substrate captured via its GST tag to anti-GST antibody (Molecular Probes, Cat No A-5800) coated Protein A PVT SPA beads (Amersham Biosciences, Catalogue No. RPQ0019; 250 μg/well) in 50 mM HEPES pH7.5 buffer containing 0.05% (w/v) sodium azide and incubated for up to 2 hours, followed by the addition of 20 μl of 4M caesium chloride (final assay concentration of 1M). Plates were then left in the dark overnight before counting on a Packard TopCount NXT.
Radiolabelled phosphorylated substrate is formed in situ as a result of Plk1 mediated phosphorylation. The SPA beads contain a scintillant that can be stimulated to emit light. This stimulation only occurs when a radiolabelled phosphorylated substrate is bound to the surface of the coated SPA bead causing the emission of blue light that can be measured on a scintillation counter. Accordingly, the extent of Plk1 mediated Cdc25C phosphorylation was assessed. The raw assay data were then analysed by non-linear regression analysis and Plk1 enzyme inhibition for a given test compound is expressed as an IC50 value.

As for `COc1cc(C(=O)NC2CCN(C)CC2)ccc1Nc1ncc2c(n1)N(C1CCCC1)CCCN2C` [Example 4, 4-[(2-Cyclopentyl-6-methyl-2,6,9,11-tetrazabicyclo[5.4.0]undeca-8,10,12-trien-10-yl)amino]-3-methoxy-N-(1-methyl-4-piperidyl)benzamide], the pIC50 (as a rule, −log10 of the IC50, conventionally taken in molar units) was over 4.00 at recombinant Plk1 and over 6.00 in test [1].
Turning to `CC(C)N1CCC(=O)N(C)c2cnc(Nc3ccc(C(=O)NCCN4CCOCC4)cc3Cl)nc21` [Example 228, 3-chloro-4-[(2-methyl-3-oxo-6-propan-2-yl-2,6,8,10-tetrazabicyclo[5.4.0]undeca-7,9,11-trien-9-yl)amino]-N-(2-morpholin-4-ylethyl)benzamide], the pIC50 at recombinant Plk1 was over 6.00; in test [1], over 4.52.
For the compound `CN1CCC(NC(=O)c2ccc(Nc3ncc4c(n3)N(C3CCCC3)CCC(=O)N4C)nc2)CC1` [Example 269, 6-[(6-cyclopentyl-2-methyl-3-oxo-2,6,8,10-tetrazabicyclo[5.4.0]undeca-8,10,12-trien-9-yl)amino]-N-(1-methyl-4-piperidyl)pyridine-3-carboxamide], the pIC50 on recombinant Plk1 is over 6.52; in test [1], over 6.00.
The matching figures for `COc1cc(C(=O)NC2CCN(C)CC2)ccc1Nc1ncc2c(n1)N(C1CCCC1)CC(C)C(=O)N2C` (single isomer, unassigned) [Example 240]: over 6.52 and over 6.52.
On to `COc1cc(C(=O)NCCN2CCOCC2)ccc1Nc1ncc2c(n1)N(c1ccccc1)CCC(=O)N2C` [Example 220, 3-methoxy-4-[(2-methyl-3-oxo-6-phenyl-2,6,8,10-tetrazabicyclo[5.4.0]undeca-8,10,12-trien-9-yl)amino]-N-(2-morpholin-4-ylethyl)benzamide], for which the pIC50 was over 6.00 on recombinant Plk1 and over 4.52 in test [1].
Turning to `COCCN1CCC(NC(=O)c2ccc(Nc3ncc4c(n3)N(C3CCCC3)CC(C)(C)C(=O)N4C)c(OC)c2)CC1` [Example 244, 4-[(2-cyclopentyl-4,4,6-trimethyl-5-oxo-2,6,9,11-tetrazabicyclo[5.4.0]undeca-7,9,11-trien-10-yl)amino]-3-methoxy-N-[1-(2-methoxyethyl)-4-piperidyl]benzamide], the pIC50 at recombinant Plk1 was over 6.00; in test [1], over 6.52.
The matching figures for `CN1CCC(NC(=O)c2ccc(Nc3ncc4c(n3)N(C3CCCC3)CCC(=O)N4C)cn2)CC1` [Example 270, 5-[(6-cyclopentyl-2-methyl-3-oxo-2,6,8,10-tetrazabicyclo[5.4.0]undeca-8,10,12-trien-9-yl)amino]-N-(1-methyl-4-piperidyl)pyridine-2-carboxamide]: over 6.52 and over 4.52.
The matching figures for `COc1cc(C(=O)NC2CCCN(C)C2)ccc1Nc1ncc2c(n1)N(C1CCCC1)CC(C)(C)C(=O)N2C` (centres unmarked) [Example 243, 4-[(2-cyclopentyl-4,4,6-trimethyl-5-oxo-2,6,9,11-tetrazabicyclo[5.4.0]undeca-7,9,11-trien-10-yl)amino]-3-methoxy-N-(1-methyl-3-piperidyl)benzamide]: over 6.00 and over 6.52.
Taken in the same sequence, the figures for `COc1cc(C(=O)NCCCN(C)C)ccc1Nc1ncc2c(n1)N(C1CCCCC1)CC1(CC1)C(=O)N2C` [Example 431, 4-(9′-cyclohexyl-5′-methyl-6′-oxo-5′,6′,8′,9′-tetrahydrospiro[cyclopropane-1,7′-pyrimido[5,4-b][1,4]diazepine]-2′-ylamino)-N-(3-dimethylaminopropyl)-3-methoxy-benzamide] were over 6.52 and over 6.52.
Regarding `COc1cc(C(=O)NC2CCN(C(=O)OCc3ccccc3)CC2)ccc1Nc1ncc2c(n1)N(C1CCCC1)CCC(=O)N2C` [Example 54, Benzyl 4-[[4-[(6-cyclopentyl-2-methyl-3-oxo-2,6,8,10-tetrazabicyclo[5.4.0]undeca-8,10,12-trien-9-yl)amino]-3-methoxy-benzoyl]amino]piperidine-1-carboxylate], the pIC50 on recombinant Plk1 is over 4.00; in test [1], over 6.52.
